Experimental data published in US20220354805A1, “Cannabidiol (CBD) as Chemical for Treating Aging-related Degenerative Diseases and Promoting Health Aging” (Hemix Biotech Limited, priority 2021, published 2022).

What was measured:
[1] = tested on: wildtype and LMNA^G609G/G609G MEFs; assay: Cell proliferation rate (population doubling level, PDL) of MEFs; format: cell-based, mouse
Source text: In the step of isolating mouse embryo fibroblasts (MEFs), heterozygous (LMNA^G609G/+) mice were set for mating. The date of pregnancy of mice was identified by checking for vaginal plug in the morning following the day of mating. If the vaginal plug was found, the mouse was considered to be pregnant for 0.5 days (E0.5). When the embryos reached E12.5 to E13.5, the pregnant mice were sacrificed, and the embryos were isolated from the mice inside tissue culture hood using sterile utensils. The embryos were placed in phosphate buffered saline (PBS). Their head and liver were removed. A portion of the head was used for genotyping to identify the genotype of each embryo. The body of each embryo was transferred to 1mL of 0.1% Trypsin-EDTA solution in a well of 12-well plate. Using sterile scissors, embryos were cut into small pieces. The 12-well plate was then placed in a 37° C. incubator for 10 minutes. Followed by vigorous pipetting of the embryos in Trypsin-EDTA solution until the embryos wholly dissolved into the solution. The 12-well plate was then placed in 37° C. incubator for 5 minutes. The homogenized solution was then transferred to 9 mL of Gibco's High Glucose Dulbecco's Modified Eagle's Medium (DMEM) supplemented with sodium bicarbonate (3.7 g/L), HEPES (6 g/L), 10% fetal bovine serum (FBS) and penicillin-streptomycin (100 units/mL). The isolated MEFs were considered to be at passage 0 (P0). P3 MEFs were used in experiments as they have optimal cellular responses to stimuli. […]
In the step of determining the cell's proliferation rate and optimal concentration, primary mouse embryonic fibroblasts (MEFs) at passage 3 were counted by using LUNA-II Automated Cell Counter. […] After 4-day and 8-day treatment, the cells were counted again using LUNA-II Automated Cell Counter. The population doubling level (PDL) which reflects the proliferation rate of cells was calculated by the formula: n=3.32×(logUCY−logI)+X, where n=the PDL number, UCY=the cell yield at that time point, I=the initial cell number, and X=the doubling level of the cells used to initiate the subculture being quantitated.

[2] = tested on: wildtype and LMNA^G609G/G609G MEFs; assay: Senescence-associated beta-galactosidase staining of MEFs; format: cell-based, mouse; conditions: vs control cells
Description: In the step of determining the senescence lever and optimal concentration, the primary mouse embryonic fibroblasts (MEFs) at passage 3 were seeded and cultured in chamber slides. The slides were washed twice with ice-cold phosphate buffered saline (PBS). Using senescence-associated beta-galactosidase staining kit, the cells were fixed for 10 minutes with provided paraformaldehyde and washed twice with PBS. The slides were then incubated with the staining solution at 37° C. overnight. On the following day, the slides were washed twice with PBS and mounted with 40% glycerol in PBS. The stained cells were observed under a light microscope. Senescent cells were stained blue while proliferating cells were unstained. The percentage of senescent cells was quantified by counting the number of stained and unstained cells.

[3] = tested on: skin of LMNA^G609G/G609G mice; assay: Histology study of mouse skin (hematoxylin and eosin staining); format: in vivo; conditions: CBD treated LMNA^G609G/G609G mice
Description: In the step of study the histology of mouse skin and liver, the mice were sacrificed by cervical dislocation under anesthesia by intraperitoneal (IP) injection of 100 mg/kg ketamine and 16 mg/kg xylazine in sterile water. Major organs, including skin, muscle, intestine, kidney, spleen, liver, lung, heart, aorta, were collected. Half of the tissues were snap-frozen in liquid nitrogen and stored at −80° C. for extraction of proteins and RNA. Another half of the tissues were fixed in 4% paraformaldehyde (PFA) in PBS and shook at 4° C. overnight. For paraffin wax sections, the fixed tissues were incubated in 70% ethanol and shook at 4° C. overnight. Followed by stepwise dehydration of tissues in 90%, 95%, 100%, and 100% ethanol for 1 hour each. Then the tissues were incubated in 50% xylene and 50% ethanol for 30 to 40 minutes and transferred to 100% xylene for 10 to 15 minutes. The tissues were then incubated in wax for 30 minutes and transferred to new wax for 3 times. Then the tissues were placed in the wax inside a vacuum chamber overnight. On the following day, the tissues were embedded into paraffin blocks and sectioned into slides with 6 μm in thickness. After the tissue sections were dried, they were incubated in xylene solution twice each for 5 minutes. […]

[4] = tested on: p21, BCL-w, BCL-xL, MCL-1, TRIB3, p-akt in MSCs; assay: Western blotting in irradiated and non-irradiated MSCs; format: cell-based, human; conditions: 6-hour 10 μM CBD
Description: FIG. 12a-b illustrates the results of senolytic effect of CBD in mesenchymal stem cells (MSCs) upon irradiation induced senescence.
The relative cell viability was calculated by normalizing each sample to non-irradiated control sample. […] As CBD selectively killed senescent MSCs while keeping proliferating MSCs unharmed, it was discovered to be a novel senolytic. Referring to FIG. 12b, Western blotting was carried to investigate the mechanism behind CBD's senolytic effect. […] While as proliferating and senescent MSCs responded differently in phosphorylated akt level.

C=C(C)[C@@H]1CCC(C)=C[C@H]1c1c(O)cc(CCCCC)cc1O [CBD, Cannabidiol]
effect on PDL ([1]; 10 μM CBD, 4 and 8 days of treatment): increased the PDL to the greatest extent | effect on PDL (toxicity effect) ([1]; 50 μM CBD, 4 days): decrease in PDL | optimal concentration (PDL) ([1]; MEFs, 4 and 8 days of treatment): 10 µM | senescence levels ([2]; 10 μM CBD, 8 days): decrease in senescence levels | senescence levels (toxicity effect) ([2]; 50 μM CBD, 4 days): increase in senescence levels | decrease of hair follicle density [3]: rescued | loss of skin adipose layer [3]: rescued | BCL-w level ([4]; irradiated MSCs): downregulated | BCL-xL level ([4]; irradiated MSCs): downregulated | MCL-1 level ([4]; irradiated MSCs): downregulated | p21 level ([4]; irradiated MSCs): significantly downregulated | TRIB3 expression level (downregulated in senescent MSCs) ([4]; irradiated senescent MSCs): rescued | p-akt level ([4]; non-irradiated MSCs): significantly upregulated
